The results in this text go back to PubChem BioAssay AID248 (DTP/NCI, 2004).

“And” between values parts separate entries of the source, which are not always exact repeats. Equal entries are not always repeated. Toxic doses and inconclusive results are not listed.

The test system of this assay is L1210 leukemia ip in BDF1 mice, survival T/C. In words: NCI In Vivo Anticancer Drug Screen. Data for tumor model L1210 Leukemia (intraperitoneal) in B6D2F1 (BDF1) mice. The settings on record: endpoint: mean survival time, higher = longer survival. The procedure, abridged:
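In this screen, tumor-bearing mice given compound are compared to those given vehicle, and their survival values are reported as a treated-to-control quotient.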

Where [1] appears, read: dose: 100.0 mg/kg/injection, schedule: Q04DX003 (ip), vehicle: Klucel (hydroxypropylcellulose) (HPC).
Setting [2] is: dose: 200.0 mg/kg/injection, schedule: Q04DX003 (ip), vehicle: Klucel (hydroxypropylcellulose) (HPC).
Setting [3] is: dose: 400.0 mg/kg/injection, schedule: Q04DX003 (ip), vehicle: Klucel (hydroxypropylcellulose) (HPC).
Setting [4] is: dose: 100.0 mg/kg/injection, schedule: Q01DX001 (ip), vehicle: carboxymethylcellulose (CMC).
Setting [5] is: dose: 200.0 mg/kg/injection, schedule: Q01DX001 (ip), vehicle: carboxymethylcellulose (CMC).
Setting [6] is: dose: 400.0 mg/kg/injection, schedule: Q01DX001 (ip), vehicle: carboxymethylcellulose (CMC).
[7] abbreviates: dose: 100.0 mg/kg/injection, schedule: Q04DX003 (ip), vehicle: saline.
Where [8] appears, read: dose: 200.0 mg/kg/injection, schedule: Q04DX003 (ip), vehicle: saline.
[9] abbreviates: dose: 400.0 mg/kg/injection, schedule: Q04DX003 (ip), vehicle: saline.
Setting [10] is: dose: 50.0 mg/kg/injection, schedule: Q01DX001 (ip), vehicle: carboxymethylcellulose (CMC).
Setting [11] is: dose: 100.0 mg/kg/injection, schedule: Q01DX001 (ip), vehicle: saline.
[12] abbreviates: dose: 200.0 mg/kg/injection, schedule: Q01DX001 (ip), vehicle: saline.
Setting [13] is: dose: 400.0 mg/kg/injection, schedule: Q01DX001 (ip), vehicle: saline.

Turning to `Nc1cc(O)c(CCCNC(=O)CBr)c(-c2ccccc2)c1`, the T/C was 92 % of control (dose: 100.0 mg/kg/injection, schedule: Q01DX001 (ip), vehicle: Klucel (hydroxypropylcellulose) (HPC)); 105 % of control (dose: 200.0 mg/kg/injection, schedule: Q01DX001 (ip), vehicle: Klucel (hydroxypropylcellulose) (HPC)); 102 % of control (dose: 400.0 mg/kg/injection, schedule: Q01DX001 (ip), vehicle: Klucel (hydroxypropylcellulose) (HPC)).

For `CCCCCCCCCCCC(=O)OCC1OC2C(Oc3nc(=N)ccn32)C1OC(=O)CCCCCCCCCCC` (stereo not drawn), the T/C (dose: 12.5 mg/kg/injection, schedule: Q01DX009 (ip), vehicle: water) was 157 % of control; the T/C (dose: 25.0 mg/kg/injection, schedule: Q01DX009 (ip), vehicle: water) is 210 % of control; the T/C (dose: 50.0 mg/kg/injection, schedule: Q01DX009 (ip), vehicle: water) is 165 % of control.

As for `Nc1ccc2ccccc2c1-c1c(N)ccc2ccccc12`, the T/C is 109 % of control (dose: 75.0 mg/kg/injection, schedule: Q04DX002 (ip), vehicle: saline with Tween-80); 97 % of control under setting [1]; 103 % of control under setting [2]; 94 % of control (dose: 300.0 mg/kg/injection, schedule: Q04DX002 (ip), vehicle: saline with Tween-80); 88 % of control under setting [3].

On to `Cc1cccc(C2CCCCC2OS(C)(=O)=O)c1` (stereo not drawn), for which the T/C was 101 % of control under setting [4], 108 % of control under setting [5] and 95 % of control under setting [6].

Turning to `CC(C)=CCC/C(C)=C/CNc1ncnc2c1ncn2C1OC(CO)C(O)C1O` (stereo not drawn), the T/C reads like this: (dose: 100.0 mg/kg/injection, schedule: Q01DX005 (ip), vehicle: saline) 95 % of control; (dose: 200.0 mg/kg/injection, schedule: Q01DX005 (ip), vehicle: saline) 94 % of control.

`Cc1[nH]c(=O)[nH]c(=O)c1S(=O)(=O)O`: the T/C under setting [1] was 98 % of control, the T/C under setting [2] is 93 % of control and the T/C under setting [3] was 98 % of control.

For `O=[N+]([O-])c1ccc(OCC2CO2)cc1` (stereo not drawn), the T/C (dose: 100.0 mg/kg/injection, schedule: Q04DX002 (ip), vehicle: gum acacia) was 100 % of control; the T/C (dose: 200.0 mg/kg/injection, schedule: Q04DX002 (ip), vehicle: gum acacia) is 117 % of control; the T/C (dose: 400.0 mg/kg/injection, schedule: Q04DX002 (ip), vehicle: gum acacia) was 88 % of control.

With `c1ccc(ON=C2c3ccccc3-c3ccccc32)cc1`, the T/C was 102 % of control under setting [7], 96 % of control under setting [8] and 89 % of control under setting [9].

Turning to `O=C(O)c1ccccc1[N+](=O)[O-].[Ag]`, the T/C runs as follows: (dose: 12.5 mg/kg/injection, schedule: Q04DX003 (ip), vehicle: saline with Tween-80) 90 % of control; (dose: 25.0 mg/kg/injection, schedule: Q04DX003 (ip), vehicle: saline with Tween-80) 107 % of control; (dose: 50.0 mg/kg/injection, schedule: Q04DX003 (ip), vehicle: saline with Tween-80) 91 % of control.

In the case of `COc1cc2c(cc1OC)N(C(C)=O)Cc1ccc(C=O)n1C2`, the T/C is, setting by setting: (dose: 25.0 mg/kg/injection, schedule: Q04DX002 (ip), vehicle: Klucel (hydroxypropylcellulose) (HPC)) 105 % of control; (dose: 50.0 mg/kg/injection, schedule: Q04DX002 (ip), vehicle: Klucel (hydroxypropylcellulose) (HPC)) 97 % of control; (dose: 100.0 mg/kg/injection, schedule: Q04DX002 (ip), vehicle: Klucel (hydroxypropylcellulose) (HPC)) 90 % of control.

As to `Cc1cc(C(=O)c2ccccc2)ccc1O`, the T/C under setting [10] was 100 % of control, the T/C under setting [4] is 96 % of control, the T/C under setting [5] is 91 % of control and the T/C under setting [6] is 96 % of control.

In the case of `CCC1=C[C@H]2CN(CCc3c([nH]c4ccccc34)[C@@](C(=O)OC)(c3cc4c(cc3OC)N(C)[C@H]3[C@@](O)(C(=O)NC)[C@H](OC(C)=O)[C@]5(CC)C=CCN6CC[C@]43[C@@H]65)C2)C1`, the T/C reads like this: (dose: 0.03 mg/kg/injection, schedule: Q01DX009 (ip), vehicle: saline) 103 % of control; (dose: 0.03 mg/kg/injection, schedule: Q01DX009 (ip), vehicle: water) 103 % of control; (dose: 0.06 mg/kg/injection, schedule: Q01DX009 (ip), vehicle: saline) 114 % of control; (dose: 0.06 mg/kg/injection, schedule: Q01DX009 (ip), vehicle: water) 115 % of control; (dose: 0.12 mg/kg/injection, schedule: Q01DX009 (ip), vehicle: saline) 117 % of control; (dose: 0.25 mg/kg/injection, schedule: Q01DX009 (ip), vehicle: saline) 114 % of control. In addition, the T/C runs as follows: (dose: 0.25 mg/kg/injection, schedule: Q01DX009 (ip), vehicle: water) 157 % of control; (dose: 1.0 mg/kg/injection, schedule: Q01DX009 (ip), vehicle: saline) 120 % of control; (dose: 1.0 mg/kg/injection, schedule: Q01DX009 (ip), vehicle: water) 118 % of control.

Regarding `CS(=O)(=O)OCCN(CCOS(C)(=O)=O)c1ccc(C=Nc2cc(Br)c(O)c(Br)c2)c(Cl)c1`, the T/C runs as follows: under setting [1], 98 % of control; under setting [2], 98 % of control; under setting [3], 97 % of control.

As to `Clc1ccc(C=Nc2ccc3c(c2)Cc2ccccc2-3)cc1`, the T/C by setting is: (dose: 100.0 mg/kg/injection, schedule: Q01DX009 (ip), vehicle: Klucel (hydroxypropylcellulose) (HPC)) 90 % of control; under setting [1], 96 % of control; (dose: 200.0 mg/kg/injection, schedule: Q01DX009 (ip), vehicle: Klucel (hydroxypropylcellulose) (HPC)) 93 % of control; under setting [2], 102 % of control; (dose: 400.0 mg/kg/injection, schedule: Q01DX009 (ip), vehicle: Klucel (hydroxypropylcellulose) (HPC)) 92 % of control; under setting [3], 91 % of control.

Turning to `O=C(S)CN1C(=O)c2ccccc2C1=O`, the T/C was 91 % of control under setting [4], 93 % of control under setting [5] and 102 % of control under setting [6].

On to `COc1ccc(Cc2nc(-c3ccc(N=Cc4ccc(N(CCCl)CCCl)cc4)cc3)cs2)cc1`, for which the T/C was 88 % of control under setting [10], 92 % of control under setting [4], 97 % of control under setting [5] and 94 % of control under setting [6].

For the compound `CC(=O)N1CC(n2cnc3c(N)ncnc32)CC1CO` (stereo not drawn), the T/C was 102 % of control (dose: 12.5 mg/kg/injection, schedule: Q04DX002 (ip), vehicle: saline with Tween-80); 98 % of control (dose: 25.0 mg/kg/injection, schedule: Q04DX002 (ip), vehicle: saline with Tween-80); 94 % of control (dose: 50.0 mg/kg/injection, schedule: Q04DX002 (ip), vehicle: saline with Tween-80).

As to `Brc1cc(Br)cc(Br)c1`, the T/C is 92 % of control and 98 % of control under setting [1]; 101 % of control and 105 % of control under setting [2]; 98 % of control and 103 % of control under setting [3].

As for `O=[N+]([O-])c1cccc(OCCBr)c1`, the T/C is 101 % of control under setting [11], 107 % of control under setting [12] and 103 % of control under setting [13].

Turning to `O=S(=O)(Nc1ccc(Cl)cc1Cl)c1ccccc1`, the T/C under setting [1] was 103 % of control, the T/C under setting [2] was 103 % of control and the T/C under setting [3] was 103 % of control.

As for `O=C(NCCCCC(NC(=O)OCc1ccccc1)C(=O)NCCCCCCN(CCCCCCNC(=O)C(CCCCNC(=O)OCc1ccccc1)NC(=O)OCc1ccccc1)C(=O)C(CCCCNC(=O)OCc1ccccc1)NC(=O)OCc1ccccc1)OCc1ccccc1` (stereo not drawn), the T/C is, setting by setting: under setting [11], 100 % of control; under setting [12], 94 % of control; under setting [13], 94 % of control.

On to `CC[As](=O)(O)c1ccc([N+](=O)[O-])cc1`, for which, for the setting “dose: 100.0 mg/kg/injection, schedule: Q01DX001 (ip), vehicle: saline with Tween-80”, the T/C was 101 % of control.

As to `CCOC(=O)CCC(NC(=O)c1cc([N+](=O)[O-])cc([N+](=O)[O-])c1)C(=O)OCC` (stereo not drawn), the T/C is 100 % of control under setting [7], 97 % of control under setting [8] and 97 % of control under setting [9].

In the case of `CC(C)C1CCC2(CC1)CC(=O)N(CCC[N+](C)(C)C)C(=O)C2`, the T/C under setting [10] was 96 % of control.

As to `NC(=O)C(CC(=O)OCc1ccccc1)NC(=O)OCc1ccccc1` (stereo not drawn), the T/C by setting is: (dose: 100.0 mg/kg/injection, schedule: Q01DX009 (ip), vehicle: saline with Tween-80) 92 % of control; (dose: 200.0 mg/kg/injection, schedule: Q01DX009 (ip), vehicle: saline with Tween-80) 90 % of control; (dose: 400.0 mg/kg/injection, schedule: Q01DX009 (ip), vehicle: saline with Tween-80) 97 % of control.
